Data on 6 compounds can be found in PubChem BioAssay (NCI).

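All cell lines were grown in 96-well plates and treated with compound for 48 hours. TGI is the concentration that stops growth completely.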 Bounds are passed on as bounds.

Among the test systems are A498 renal; COLO 205 colon; DU-145 prostate; HCC-2998 colon; HCT-15 colon; HL-60(TB) leukemia; HOP-62 NSCLC; HS 578T breast; MALME-3M melanoma; NCI-H23 lung; SF-539 CNS; SK-MEL-5 melanoma; SNB-75 CNS; SW-620 colon; TK-10 renal; U251 CNS.
Assay in all cases: NCI-60 cell line screen, 48 h

As for `N#Cc1ccccc1OCCOc1ccccc1C#N`, the TGI in the experiment on A498 renal, with COLO 205 colon, in the experiment on DU-145 prostate, in the experiment on HCC-2998 colon, in the experiment on HCT-15 colon and in the experiment on HL-60(TB) leukemia was above 100 µM in each case. For the same compound, the TGI in the experiment on HOP-62 NSCLC, with HS 578T breast, with MALME-3M melanoma, in the experiment with NCI-H23 lung, in the experiment with SF-539 CNS and with SK-MEL-5 melanoma was above 100 µM each time. Moreover, the TGI with SNB-75 CNS, in the experiment with SW-620 colon, in the experiment on TK-10 renal and in the experiment on U251 CNS was above 100 µM in each case.

`CCN(CC)CCNc1ccc([N+](=O)[O-])c2nc3ccc(OC)cc3c(NCCN(CC)CC)c12`: the TGI is 4.05 µM in the experiment on A498 renal; 1.59 µM in the experiment on COLO 205 colon; above 7.37 µM in the experiment with DU-145 prostate; 2.01 µM in the experiment on HCC-2998 colon; 2.52 µM in the experiment on HCT-15 colon; 2.53 µM with HL-60(TB) leukemia. Besides, the TGI with HOP-62 NSCLC worked out at 3.75 µM; with HS 578T breast it was 3.91 µM; with MALME-3M melanoma, 5.07 µM; in the experiment with NCI-H23 lung, 4.38 µM; in the experiment with SF-539 CNS, 2.43 µM; with SK-MEL-5 melanoma, 2.98 µM. For the same compound, the TGI in the experiment with SNB-75 CNS is above 5.11 µM; in the experiment on SW-620 colon, 2.51 µM; in the experiment on TK-10 renal it was above 8.78 µM; with U251 CNS, 2.59 µM.

For the compound `COc1ccc(/C(Nc2ccccc2)=C(\CCl)c2ccccc2)cc1OC`, the TGI in the experiment on A498 renal is above 100 µM; in the experiment on COLO 205 colon, above 100 µM; with DU-145 prostate, above 100 µM; in the experiment on HCC-2998 colon, above 100 µM; in the experiment on HCT-15 colon it was above 100 µM; with HL-60(TB) leukemia, 50 µM. In addition, the TGI with HOP-62 NSCLC was above 100 µM; with HS 578T breast it was above 100 µM; with MALME-3M melanoma, above 100 µM; in the experiment with NCI-H23 lung, above 100 µM; with SF-539 CNS, above 100 µM; in the experiment on SK-MEL-5 melanoma, 72.2 µM. In addition, the TGI in the experiment on SNB-75 CNS was above 100 µM; in the experiment on SW-620 colon, above 100 µM; with TK-10 renal it was above 100 µM; with U251 CNS it was 64.7 µM.

On to `Cc1cc(C)c(-c2no/c(=N\S(=O)(=O)c3ccc(Cl)cc3)o2)c(C)c1`, for which the TGI in the experiment on A498 renal is above 100 µM; in the experiment on COLO 205 colon, above 100 µM; with DU-145 prostate, above 100 µM; in the experiment on HCC-2998 colon, above 100 µM; with HCT-15 colon, above 100 µM; with HL-60(TB) leukemia it was 77.4 µM. Also, the TGI in the experiment with HOP-62 NSCLC was above 100 µM; in the experiment with HS 578T breast, above 100 µM; in the experiment with MALME-3M melanoma it was above 100 µM; in the experiment with NCI-H23 lung, above 100 µM; in the experiment with SF-539 CNS, above 100 µM; in the experiment on SK-MEL-5 melanoma it was 68 µM. The TGI in the experiment with SNB-75 CNS, with SW-620 colon, in the experiment on TK-10 renal and in the experiment with U251 CNS was above 100 µM throughout.

For the compound `CCN1CCC(O)(c2ccc([N+](=O)[O-])cc2)C(C(=O)c2ccc([N+](=O)[O-])cc2)C1` (stereo unspecified), the TGI in the experiment on A498 renal was 46.2 µM; in the experiment on COLO 205 colon, 28.1 µM; with DU-145 prostate it was 32.3 µM; with HCC-2998 colon, 32.8 µM; in the experiment on HCT-15 colon, 52.9 µM; in the experiment on HL-60(TB) leukemia, above 100 µM. Also, the TGI with HOP-62 NSCLC was above 100 µM; in the experiment on HS 578T breast, 61.7 µM; in the experiment on MALME-3M melanoma it was 48.6 µM; with NCI-H23 lung, 36.4 µM; in the experiment with SF-539 CNS it was 30.7 µM; in the experiment on SK-MEL-5 melanoma, 35.7 µM. In addition, the TGI with SNB-75 CNS was above 100 µM; in the experiment with SW-620 colon it was above 100 µM; with TK-10 renal it was 32.4 µM; with U251 CNS it was above 100 µM.

`COc1ccc2nc3c(c(N)c2c1)C1CCC3C1(C)C` (stereo unspecified): the TGI with A498 renal was 70.7 µM; in the experiment with COLO 205 colon, 36.2 µM; with DU-145 prostate, above 100 µM; with HCC-2998 colon, 31.9 µM; in the experiment with HCT-15 colon it was above 100 µM; in the experiment with HL-60(TB) leukemia, 68.6 µM. The TGI in the experiment with HOP-62 NSCLC was 47.9 µM; in the experiment on HS 578T breast, above 100 µM; in the experiment on MALME-3M melanoma, 67.3 µM; with NCI-H23 lung, above 100 µM; in the experiment on SF-539 CNS, above 100 µM; in the experiment with SK-MEL-5 melanoma it was 25.7 µM. For the same compound, the TGI in the experiment on SNB-75 CNS, in the experiment on SW-620 colon, in the experiment with TK-10 renal and in the experiment with U251 CNS was above 100 µM each time.
